According to ChEMBL document CHEMBL1154521, “2,3-Dihydrowithaferin A-3beta-O-sulfate, a new potential prodrug of withaferin A from aeroponically grown Withania somnifera” (2009):
Calls of active or inactive are those of the source. No cut-off for these calls is given here.

Columns and labels:
WI-38 [1] = test: Induction of F-actin aggregation in human WI38 cells after 24 hrs; format: functional, cell-based
MCF7 [2] = test: Cytotoxicity against human MCF7 cells after 72 hrs by MTT assay; format: functional, cell-based
WI-38 [3] = test: Induction of F-actin aggregation in human WI38 cells after 4 hrs; format: functional, cell-based
[4] = biological target: T1, Heat shock factor protein 1 (Mus musculus) (UniProt P38532); test: Induction of HSF1-mediated heat-shock protein 72 expression in mouse fibroblast with plasmid EGFP at 2 uM after overnight incubation by micro plate fluorometer
T1 sequence (whole entry): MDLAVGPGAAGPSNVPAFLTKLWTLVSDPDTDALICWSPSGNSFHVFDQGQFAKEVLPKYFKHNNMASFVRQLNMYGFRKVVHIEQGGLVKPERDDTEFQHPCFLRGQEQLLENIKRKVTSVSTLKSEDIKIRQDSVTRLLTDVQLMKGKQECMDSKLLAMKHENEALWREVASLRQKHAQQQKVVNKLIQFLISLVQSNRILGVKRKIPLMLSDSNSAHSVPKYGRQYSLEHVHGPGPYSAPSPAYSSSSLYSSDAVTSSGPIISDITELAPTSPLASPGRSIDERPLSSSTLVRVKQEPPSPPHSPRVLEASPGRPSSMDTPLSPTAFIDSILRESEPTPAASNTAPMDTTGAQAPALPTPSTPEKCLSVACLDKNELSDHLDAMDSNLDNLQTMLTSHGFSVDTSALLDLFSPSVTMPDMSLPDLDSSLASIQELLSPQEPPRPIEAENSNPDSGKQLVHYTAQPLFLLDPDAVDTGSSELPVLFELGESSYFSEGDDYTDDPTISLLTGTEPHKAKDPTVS

MCF7 [5] = test: Cytotoxicity against human MCF7 cells by MTT assay; format: functional
[6] = Growth inhibition of human NCI60 cells; format: functional

| Activity [4] | Compound | Activity (WI-38 [1]) | Activity (MCF7 [2]) | Activity (WI-38 [3]) | inhibition (INH) (MCF7 [5]) [%] | GI50 [6] [µM] |
| --- | --- | --- | --- | --- | --- | --- |
| – | CC1=C(CO)C(=O)O[C@@H]([C@@H](C)[C@H]2CC[C@H]3[C@@H]4C[C@H]5O[C@]56[C@@H](O)[C@@H](OS(=O)(=O)O)CC(=O)[C@]6(C)[C@H]4CC[C@]23C)C1 | inactive | – | – | – | – |
| Active | CC1=C(CO)C(=O)O[C@@H]([C@@H](C)[C@H]2CC[C@H]3[C@@H]4C[C@H]5O[C@]56[C@@H](O)C=CC(=O)[C@]6(C)[C@H]4CC[C@]23C)C1 [WITHAFERIN A] | – | Active | Active | 50 | 0.62 |
